Experimental data as given in patent publication US6514913B1, “Weed growth inhibitory compositions” (Marubeni Agrotec Corporation, priority 1998, dated 2003).

Experiments:
[1] = test system: annual bluegrass; experiment: Pot test in greenhouse, weed growth inhibition (Test Example 1); format: in vivo, Poa annua L.; conditions: flowable of Preparation Example 3, soil surface one day after sowing, 30 days after treatment
From the text: (§1) Plastic pots having a size of 100 m^2/3000 were filled with soil of an upland farm, and the surface of the soil was flattened. Then, the soil surfaces were sowed with weed seeds of annual bluegrass, foxtail, and flat-sedge. After sowing, the seeds were covered with soil to a height of about 5 mm. Also, the rhizomes of Cyperus brevifolius were buried to a depth of about 1 cm. One day after sowing, a predetermined amount of the flowable prepared by the method described in the Preparation Example 3 was applied to the soil surface in an amount of 250 ml/m^2 of dilution with water. Then, the pots were allowed to stand in the greenhouse, and sprinkled with water at the appropriate times. Thirty days after treatment with the composition, its growth inhibition effect was observed. The growth inhibition effect in the table was evaluated according to the following criteria:
(§2) Evaluation Criteria for Weed Growth Inhibition Effect: […]

[2] = test system: Cyperus brevifolius; experiment: as above; format: in vivo; conditions: flowable of Preparation Example 3, soil surface, rhizomes buried about 1 cm, 30 days after treatment
From the text: as §1, §2

[3] = test system: foxtail; experiment: as above; format: in vivo; conditions: flowable of Preparation Example 3, soil surface one day after sowing, 30 days after treatment
From the text: as §1, §2

[4] = test system: flat-sedge; experiment: as above; format: in vivo, Cyperus microiria; conditions: flowable of Preparation Example 3, soil surface one day after sowing, 30 days after treatment
From the text: as §1, §2

[5] = test system: South Japanese lawngrass; experiment: Pot test in greenhouse, lawn phytotoxicity (Test Example 2); format: in vivo, Zoysia matrella; set-up: key: −:None; ±:Very slight; +:Slight; 2+:Moderate; 3+:Heavy; ×:Dead; conditions: flowable of Preparation Example 3 on bred lawn sod in pots, 30 days after treatment
From the text: (§3) Plastic pots having a size of 100 m^2/5000 were filled with soil of an upland farm, and planted with a lawn sod withdrawn by a hole cutter from various bred turfs. The planted pots were bred and managed in a greenhouse for about 1 month, and then the lawn grasses were cut to the same height to use the pots as sample pots. On the day of the cutting, a predetermined amount of the flowable prepared by the method described in the Preparation Example 3 applied to the sample pots in an amount of 250 ml/m^2 of dilution with water. Then, the pots were allowed to stand in the greenhouse, and sprinkled with water at the appropriate times. Thirty days after treatment with the composition, its phytotoxicity to the lawn grasses was observed. Evaluations of the phytotoxicity to the lawn grasses in the table were made according to the following criteria:

[6] = test system: Japanese lawngrass; experiment: as above; format: in vivo, Zoysia japonica; set-up: key: −:None; ±:Very slight; +:Slight; 2+:Moderate; 3+:Heavy; ×:Dead; conditions: flowable of Preparation Example 3 on bred lawn sod in pots, 30 days after treatment
From the text: as §3

[7] = test system: Bentgrass; experiment: as above; format: in vivo, Agrostis L.; set-up: key: −:None; ±:Very slight; +:Slight; 2+:Moderate; 3+:Heavy; ×:Dead; conditions: flowable of Preparation Example 3 on bred lawn sod in pots, 30 days after treatment
From the text: as §3

[8] = test system: Kentucky bluegrass; experiment: as above; format: in vivo, Poa pratensis; set-up: key: −:None; ±:Very slight; +:Slight; 2+:Moderate; 3+:Heavy; ×:Dead; conditions: flowable of Preparation Example 3 on bred lawn sod in pots, 30 days after treatment
From the text: as §3

[9] = test system: Bermudagrass; experiment: as above; format: in vivo; set-up: key: −:None; ±:Very slight; +:Slight; 2+:Moderate; 3+:Heavy; ×:Dead; conditions: flowable of Preparation Example 3 on bred lawn sod in pots, 30 days after treatment
From the text: as §3

[10] = test system: Perennial ryegrass; experiment: as above; format: in vivo, Lolium SPP.; set-up: key: −:None; ±:Very slight; +:Slight; 2+:Moderate; 3+:Heavy; ×:Dead; conditions: flowable of Preparation Example 3 on bred lawn sod in pots, 30 days after treatment
From the text: as §3

[11] = test system: Tall fescue; experiment: as above; format: in vivo, Festuca arundinacea; set-up: key: −:None; ±:Very slight; +:Slight; 2+:Moderate; 3+:Heavy; ×:Dead; conditions: flowable of Preparation Example 3 on bred lawn sod in pots, 30 days after treatment
From the text: as §3

[12] = test system: annual bluegrass; experiment: Field test, lawn grass seed overseeding test, weed growth inhibition (Test Example 4); format: in vivo, Poa annua L.; conditions: 30 days after treatment
Procedure: Evaluation Criteria for Weed Growth Inhibition Effect:
A land of breeding of South Japanese lawngrass was divided into plots of 1 m^2 (1×1 m), and seeds of perennial ryegrass or tall fescue, and seeds of annual bluegrass as a weed were sowed on the entire surface of each plot. On the day of sowing, a predetermined amount of the flowable prepared by the method described in the Preparation Example 3 was applied in an amount of 250 ml/m^2 of dilution with water. Thirty days after treatment with the composition, its weed growth inhibition effect and lawn phytotoxicity were observed. Evaluations of the weed growth inhibition effect and lawn phytotoxicity in the table were made according to mentioned criteria.

[13] = 50 g active ingredient/1000 m^2
[14] = 100 g active ingredient/1000 m^2
[15] = 250 g active ingredient/1000 m^2
[16] = 500 g active ingredient/1000 m^2
[17] = 750 g active ingredient/1000 m^2
[18] = 1000 g active ingredient/1000 m^2
[19] = 2000 g active ingredient/1000 m^2

Structure (SMILES): CC(C)(NC(=O)NCc1ccccc1Cl)c1ccccc1 [cumyluron, 1-(2-chlorobenzyl)-3-(1-methyl-1-phenylethyl)urea]
- Inhibitory effect annual bluegrass [1, 13]: 9 (9:90% inhibition)
- Inhibitory effect annual bluegrass [1, 14]: 10 (10:100% inhibition)
- Inhibitory effect annual bluegrass [1, 15]: 10 (10:100% inhibition)
- Inhibitory effect annual bluegrass [1, 16]: 10 (10:100% inhibition)
- Inhibitory effect annual bluegrass [1, 17]: 10 (10:100% inhibition)
- Inhibitory effect annual bluegrass [1, 18]: 10 (10:100% inhibition)
- Inhibitory effect Cyperus brevifolius [2, 13]: 1 (1:10% inhibition)
- Inhibitory effect Cyperus brevifolius [2, 14]: 5 (5:50% inhibition)
- Inhibitory effect Cyperus brevifolius [2, 15]: 9 (9:90% inhibition)
- Inhibitory effect Cyperus brevifolius [2, 16]: 10 (10:100% inhibition)
- Inhibitory effect Cyperus brevifolius [2, 17]: 10 (10:100% inhibition)
- Inhibitory effect Cyperus brevifolius [2, 18]: 10 (10:100% inhibition)
- Inhibitory effect foxtail [3, 13]: 9 (9:90% inhibition)
- Inhibitory effect foxtail [3, 14]: 10 (10:100% inhibition)
- Inhibitory effect foxtail [3, 15]: 10 (10:100% inhibition)
- Inhibitory effect foxtail [3, 16]: 10 (10:100% inhibition)
- Inhibitory effect foxtail [3, 17]: 10 (10:100% inhibition)
- Inhibitory effect foxtail [3, 18]: 10 (10:100% inhibition)
- Inhibitory effect flat-sedge [4, 13]: 10 (10:100% inhibition)
- Inhibitory effect flat-sedge [4, 14]: 10 (10:100% inhibition)
- Inhibitory effect flat-sedge [4, 15]: 10 (10:100% inhibition)
- Inhibitory effect flat-sedge [4, 16]: 10 (10:100% inhibition)
- Inhibitory effect flat-sedge [4, 17]: 10 (10:100% inhibition)
- Inhibitory effect flat-sedge [4, 18]: 10 (10:100% inhibition)
- Lawn phytotoxicity South Japanese lawngrass [5, 14]: −
- Lawn phytotoxicity South Japanese lawngrass [5, 15]: −
- Lawn phytotoxicity South Japanese lawngrass [5, 16]: −
- Lawn phytotoxicity South Japanese lawngrass [5, 17]: −
- Lawn phytotoxicity South Japanese lawngrass [5, 18]: −
- Lawn phytotoxicity South Japanese lawngrass [5, 19]: −
- Lawn phytotoxicity Japanese lawngrass [6, 14]: −
- Lawn phytotoxicity Japanese lawngrass [6, 15]: −
- Lawn phytotoxicity Japanese lawngrass [6, 16]: −
- Lawn phytotoxicity Japanese lawngrass [6, 17]: −
- Lawn phytotoxicity Japanese lawngrass [6, 18]: −
- Lawn phytotoxicity Japanese lawngrass [6, 19]: −
- Lawn phytotoxicity Bent-grass [7, 14]: −
- Lawn phytotoxicity Bent-grass [7, 15]: −
- Lawn phytotoxicity Bent-grass [7, 16]: −
- Lawn phytotoxicity Bent-grass [7, 17]: −
- Lawn phytotoxicity Bent-grass [7, 18]: −
- Lawn phytotoxicity Bent-grass [7, 19]: −
- Lawn phytotoxicity Kentucky bluegrass [8, 14]: −
- Lawn phytotoxicity Kentucky bluegrass [8, 15]: −
- Lawn phytotoxicity Kentucky bluegrass [8, 16]: −
- Lawn phytotoxicity Kentucky bluegrass [8, 17]: −
- Lawn phytotoxicity Kentucky bluegrass [8, 18]: −
- Lawn phytotoxicity Kentucky bluegrass [8, 19]: −
- Lawn phytotoxicity Bermuda-grass [9, 14]: −
- Lawn phytotoxicity Bermuda-grass [9, 15]: −
- Lawn phytotoxicity Bermuda-grass [9, 16]: −
- Lawn phytotoxicity Bermuda-grass [9, 17]: −
- Lawn phytotoxicity Bermuda-grass [9, 18]: −
- Lawn phytotoxicity Bermuda-grass [9, 19]: −
- Lawn phytotoxicity Perennial ryegrass [10, 14]: −
- Lawn phytotoxicity Perennial ryegrass [10, 15]: −
- Lawn phytotoxicity Perennial ryegrass [10, 16]: −
- Lawn phytotoxicity Perennial ryegrass [10, 17]: −
- Lawn phytotoxicity Perennial ryegrass [10, 18]: −
- Lawn phytotoxicity Perennial ryegrass [10, 19]: −
- Lawn phytotoxicity Tall fescue [11, 14]: −
- Lawn phytotoxicity Tall fescue [11, 15]: −
- Lawn phytotoxicity Tall fescue [11, 16]: −
- Lawn phytotoxicity Tall fescue [11, 17]: −
- Lawn phytotoxicity Tall fescue [11, 18]: −
- Lawn phytotoxicity Tall fescue [11, 19]: −
- Inhibitory effect annual bluegrass ([12]; 100 g active ingredient/1000 m^2, flowable of Preparation Example 3 applied on the day of sowing): 10 (10:100% inhibition)
- Inhibitory effect annual bluegrass ([12]; 250 g active ingredient/1000 m^2, flowable of Preparation Example 3 applied on the day of sowing): 10 (10:100% inhibition)
- Inhibitory effect annual bluegrass ([12]; 500 g active ingredient/1000 m^2, flowable of Preparation Example 3 applied on the day of sowing): 10 (10:100% inhibition)
- Inhibitory effect annual bluegrass ([12]; 750 g active ingredient/1000 m^2, flowable of Preparation Example 3 applied on the day of sowing): 10 (10:100% inhibition)
- Inhibitory effect annual bluegrass ([12]; 1000 g active ingredient/1000 m^2, flowable of Preparation Example 3 applied on the day of sowing): 10 (10:100% inhibition)
